In PMC9145193 (Molecules, 2022):

target: T1, AChE enzyme from electrophorus electricus (eeAChE) (Electrophorus electricus, UniProt O42275); test: biochemical; details: mean ± SEM from three independent experiments
T1 construct: purchased Merck C3389
Method: Donepezil was used as a positive control.
AChE activity was measured by the […] using AChE enzyme from electrophorus electricus (eeAChE) (C3389, Merck, Kenilworth, NJ, USA). AChE solution (2 U/mL) was prepared with 0.1 M phosphate buffer (pH 8.0) firstly. Varied concentrations of test compounds (20 μL), 1 mM 5′-dithiobis (2-nitrobenzoic acid) (DTNB) solution (100 μL), and AChE solution (40 μL) were added in order to each well of a 96-well plate. After incubation for 15 min at 37 °C, the reaction was initiated by adding 20 μL of acetylthiocholine iodide (1 mM) to the mixed solution. The absorbance of each plate was instantly measured at 405 nm using a microplate reader. The inhibition of each compound was estimated using the formula (1−Ai/Ac) × 100, where Ai and Ac represent the absorbance of AChE in the presence and absence of inhibitors, respectively. Each experiment was replicated three times. Plotting curves of log concentration via percentage of inhibition, the IC50 values of all tested compounds were graphically analyzed (Graph Pad Prism 8.0).

T1 sequence (O42275 24-633): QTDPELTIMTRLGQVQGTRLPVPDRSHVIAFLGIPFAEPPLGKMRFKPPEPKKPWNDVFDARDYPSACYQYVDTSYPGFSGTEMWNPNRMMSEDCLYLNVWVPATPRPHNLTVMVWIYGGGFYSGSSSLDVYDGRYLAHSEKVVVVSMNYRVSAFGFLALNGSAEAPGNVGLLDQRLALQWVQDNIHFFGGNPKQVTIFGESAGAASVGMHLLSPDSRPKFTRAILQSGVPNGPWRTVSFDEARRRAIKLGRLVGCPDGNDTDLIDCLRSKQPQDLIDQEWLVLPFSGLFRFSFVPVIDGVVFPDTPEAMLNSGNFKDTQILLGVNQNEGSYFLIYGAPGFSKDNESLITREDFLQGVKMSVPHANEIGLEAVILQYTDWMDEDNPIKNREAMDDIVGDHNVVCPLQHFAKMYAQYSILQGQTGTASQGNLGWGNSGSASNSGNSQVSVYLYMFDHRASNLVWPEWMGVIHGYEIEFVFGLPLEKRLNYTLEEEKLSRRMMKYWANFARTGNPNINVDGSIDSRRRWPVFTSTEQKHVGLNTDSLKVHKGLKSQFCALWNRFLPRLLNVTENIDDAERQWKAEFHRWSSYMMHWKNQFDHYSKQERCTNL

| Structure (SMILES) | IC50 |
| --- | --- |
| COc1cc2c(cc1OC)C(=O)/C(=C/c1cc[n+](Cc3ccccc3F)cc1C(C)=O)OC2 [10b, (Z)-3-Acetyl-4-((6,7-dimethoxy-4-oxoisochroman-3-ylidene)methyl)-1-(2-fluorobenzyl)pyridin-1-ium Bromide] | 3.32 ± 0.21 nM |
| COc1cc2c(cc1OC)C(=O)/C(=C/c1cc[n+](Cc3cccc(F)c3)cc1C(C)=O)OC2 [10c, (Z)-3-Acetyl-4-((6,7-dimethoxy-4-oxoisochroman-3-ylidene)methyl)-1-(3-fluorobenzyl)pyridin-1-ium Bromide] | 4.03 ± 0.23 nM |
| COc1cc2c(cc1OC)C(=O)/C(=C/c1cc[n+](Cc3ccc(F)cc3)cc1C(C)=O)OC2 [10d, (Z)-3-Acetyl-4-((6,7-dimethoxy-4-oxoisochroman-3-ylidene)methyl)-1-(4-fluorobenzyl)pyridin-1-ium Bromide] | 7.69 ± 0.35 nM |
| COc1cc2c(cc1OC)C(=O)/C(=C/c1cc[n+](Cc3ccccc3Cl)cc1C(C)=O)OC2 [10e, (Z)-3-Acetyl-1-(2-chlorobenzyl)-4-((6,7-dimethoxy-4-oxoisochroman-3-ylidene)methyl)pyridin-1-ium Bromide] | 5.86 ± 0.86 nM |
| COc1cc2c(cc1OC)C(=O)/C(=C/c1cc[n+](Cc3cccc(Cl)c3)cc1C(C)=O)OC2 [10f, (Z)-3-Acetyl-1-(3-chlorobenzyl)-4-((6,7-dimethoxy-4-oxoisochroman-3-ylidene)methyl)pyridin-1-ium Bromide] | 10.3 ± 1.08 nM |
| COc1cc2c(cc1OC)C(=O)/C(=C/c1cc[n+](Cc3ccc(Cl)cc3)cc1C(C)=O)OC2 [10g, (Z)-3-Acetyl-1-(4-chlorobenzyl)-4-((6,7-dimethoxy-4-oxoisochroman-3-ylidene)methyl)pyridin-1-ium Bromide] | 67.3 ± 2.68 nM |
| COc1cc2c(cc1OC)C(=O)/C(=C/c1cc[n+](Cc3ccccc3Br)cc1C(C)=O)OC2 [10h, (Z)-3-Acetyl-1-(2-bromobenzyl)-4-((6,7-dimethoxy-4-oxoisochroman-3-ylidene)methyl)pyridin-1-ium Bromide] | 6.22 ± 0.05 nM |
| COc1cc2c(cc1OC)C(=O)/C(=C/c1cc[n+](Cc3cccc(Br)c3)cc1C(C)=O)OC2 [10i, (Z)-3-Acetyl-1-(3-bromobenzyl)-4-((6,7-dimethoxy-4-oxoisochroman-3-ylidene)methyl)pyridin-1-ium Bromide] | 11 ± 0.82 nM |
| COc1cc2c(cc1OC)C(=O)/C(=C/c1cc[n+](Cc3ccc(Br)cc3)cc1C(C)=O)OC2 [10j, (Z)-3-Acetyl-1-(4-bromobenzyl)-4-((6,7-dimethoxy-4-oxoisochroman-3-ylidene)methyl)pyridin-1-ium Bromide] | 75.7 ± 3.18 nM |
| COc1cc2c(cc1OC)C(=O)/C(=C/c1cc[n+](Cc3ccccc3C)cc1C(C)=O)OC2 [10k, (Z)-3-Acetyl-4-((6,7-dimethoxy-4-oxoisochroman-3-ylidene)methyl)-1-(2-methylbenzyl)pyridin-1-ium Bromide] | 4.8 ± 0.26 nM |
| COc1cc2c(cc1OC)C(=O)/C(=C/c1cc[n+](Cc3cccc(C)c3)cc1C(C)=O)OC2 [10l, (Z)-3-Acetyl-4-((6,7-dimethoxy-4-oxoisochroman-3-ylidene)methyl)-1-(3-methylbenzyl)pyridin-1-ium Bromide] | 6.61 ± 0.81 nM |
| COc1cc2c(cc1OC)C(=O)/C(=C/c1cc[n+](Cc3ccc(C)cc3)cc1C(C)=O)OC2 [10m, (Z)-3-Acetyl-4-((6,7-dimethoxy-4-oxoisochroman-3-ylidene)methyl)-1-(4-methylbenzyl)pyridin-1-ium Bromide] | 54.1 ± 3.22 nM |
| COc1cc2c(cc1OC)C(=O)/C(=C/c1cc[n+](Cc3ccccc3[N+](=O)[O-])cc1C(C)=O)OC2 [10n, (Z)-3-Acetyl-4-((6,7-dimethoxy-4-oxoisochroman-3-ylidene)methyl)-1-(2-nitrobenzyl)pyridin-1-ium Bromide] | 13.6 ± 0.72 nM |
| COc1cc2c(cc1OC)C(=O)/C(=C/c1cc[n+](Cc3cccc([N+](=O)[O-])c3)cc1C(C)=O)OC2 [10o, (Z)-3-Acetyl-4-((6,7-dimethoxy-4-oxoisochroman-3-ylidene)methyl)-1-(3-nitrobenzyl)pyridin-1-ium Bromide] | 22.4 ± 1.25 nM |
| COc1cc2c(cc1OC)C(=O)/C(=C/c1cc[n+](Cc3ccc([N+](=O)[O-])cc3)cc1C(C)=O)OC2 [10p, (Z)-3-Acetyl-4-((6,7-dimethoxy-4-oxoisochroman-3-ylidene)methyl)-1-(4-nitrobenzyl)pyridin-1-ium Bromide] | 129 ± 2.68 nM |
| COc1cc2c(cc1OC)C(=O)/C(=C/c1cc[n+](Cc3ccccc3C(F)(F)F)cc1C(C)=O)OC2 [10q, (Z)-3-Acetyl-4-((6,7-dimethoxy-4-oxoisochroman-3-ylidene)methyl)-1-(2-(trifluoromethyl)benzyl)pyridin-1-ium Bromide] | 18.9 ± 1.16 nM |
| COc1cc2c(cc1OC)C(=O)/C(=C/c1cc[n+](Cc3cccc(C(F)(F)F)c3)cc1C(C)=O)OC2 [10r, (Z)-3-Acetyl-4-((6,7-dimethoxy-4-oxoisochroman-3-ylidene)methyl)-1-(3-(trifluoromethyl)benzyl)pyridin-1-ium Bromide] | 25.3 ± 2.2 nM |
| COc1cc2c(cc1OC)C(=O)/C(=C/c1cc[n+](Cc3ccc(C(F)(F)F)cc3)cc1C(C)=O)OC2 [10s, (Z)-3-Acetyl-4-((6,7-dimethoxy-4-oxoisochroman-3-ylidene)methyl)-1-(4-(trifluoromethyl)benzyl)pyridin-1-ium Bromide] | 326 ± 9.01 nM |
| COc1cc2c(cc1OC)C(=O)/C(=C/c1cc[n+](Cc3ccccc3)cc1C(N)=O)OC2 [13a, (Z)-1-Benzyl-3-carbamoyl-4-((6,7-dimethoxy-4-oxoisochroman-3-ylidene)methyl)pyridin-1-ium Bromide] | 8.63 ± 0.06 nM |
| COc1cc2c(cc1OC)C(=O)/C(=C/c1cc[n+](Cc3cccc(F)c3)cc1C(N)=O)OC2 [13c, (Z)-3-Carbamoyl-4-((6,7-dimethoxy-4-oxoisochroman-3-ylidene)methyl)-1-(3-fluorobenzyl)pyridin-1-ium Bromide] | 6.02 ± 0.08 nM |
| COc1cc2c(cc1OC)C(=O)/C(=C/c1cc[n+](Cc3ccc(F)cc3)cc1C(N)=O)OC2 [13d, (Z)-3-Carbamoyl-4-((6,7-dimethoxy-4-oxoisochroman-3-ylidene)methyl)-1-(4-fluorobenzyl)pyridin-1-ium Bromide] | 8.25 ± 0.13 nM |
| COc1cc2c(cc1OC)C(=O)/C(=C/c1cc[n+](Cc3ccccc3Cl)cc1C(N)=O)OC2 [13e, (Z)-3-Carbamoyl-1-(2-chlorobenzyl)-4-((6,7-dimethoxy-4-oxoisochroman-3-ylidene)methyl)pyridin-1-ium Bromide] | 17.6 ± 0.3 nM |
| COc1cc2c(cc1OC)C(=O)/C(=C/c1cc[n+](Cc3cccc(Cl)c3)cc1C(N)=O)OC2 [13f, (Z)-3-Carbamoyl-1-(3-chlorobenzyl)-4-((6,7-dimethoxy-4-oxoisochroman-3-ylidene)methyl)pyridin-1-ium Bromide] | 26.7 ± 0.28 nM |
| COc1cc2c(cc1OC)C(=O)/C(=C/c1cc[n+](Cc3ccc(Cl)cc3)cc1C(N)=O)OC2 [13g, (Z)-3-Carbamoyl-1-(4-chlorobenzyl)-4-((6,7-dimethoxy-4-oxoisochroman-3-ylidene)methyl)pyridin-1-ium Bromide] | 188 ± 4.78 nM |
| COc1cc2c(cc1OC)C(=O)/C(=C/c1cc[n+](Cc3ccccc3Br)cc1C(N)=O)OC2 [13h, (Z)-1-(2-Bromobenzyl)-3-carbamoyl-4-((6,7-dimethoxy-4-oxoisochroman-3-ylidene)methyl)pyridin-1-ium Bromide] | 21.7 ± 0.32 nM |
